Measurements as given in BindingDB's records for doi:10.1002/cbic.201600573 (X-Chem Pharmaceuticals, 2017).

Biological target: Tyrosine-protein kinase BTK (Homo sapiens, UniProt Q06187)
Assay: BTK FRET Competitive Binding Assay
Details: 30 °C
Method: The BTK time-resolved FRET-based competitive binding assay and cell-based BTK assays have been previously described.[Xu et al., J.Pharmacol. Exp. Ther., 341:90-103] For the BTK Omnia kinetic assay used in the mechanism of action experiments, assay reagents were prepared from the Omnia Y peptide 5 kit as follows: kinase reaction buffer was diluted to 1X in dH2O. A 10X substrate (100 μm) was prepared in dH20. ATP was prepared at 1 mM (10×) in dH2O, and 2 mM (10×) DTT was prepared in dH2O. A master mix of kinase buffer (10×), peptide (10×), and DTT (10×), all at 2 μL, and dH2O (4 μL) was prepared per well. Untagged BTK enzyme was run in a final concentration of 20 nM. Compounds at varying concentrations and ATP dilutions were prepared in 1V kinase buffer. Final compound DMSO concentration was 1.25 %. In a black non-binding plate (Corning 3676), enzyme (5 μL) was added to compound/ATP mix (5 μL). The plate was incubated for 20 min at 30 °C, then master mix (10 μL) was added into each well and mixed. The plate was incubated at 30 °C, and fluorescence intensity readings at λex=360 nm, λem=485 nm was collected at predetermined intervals on the Tecan M1000.

Chain of Tyrosine-protein kinase BTK (Q06187 whole entry): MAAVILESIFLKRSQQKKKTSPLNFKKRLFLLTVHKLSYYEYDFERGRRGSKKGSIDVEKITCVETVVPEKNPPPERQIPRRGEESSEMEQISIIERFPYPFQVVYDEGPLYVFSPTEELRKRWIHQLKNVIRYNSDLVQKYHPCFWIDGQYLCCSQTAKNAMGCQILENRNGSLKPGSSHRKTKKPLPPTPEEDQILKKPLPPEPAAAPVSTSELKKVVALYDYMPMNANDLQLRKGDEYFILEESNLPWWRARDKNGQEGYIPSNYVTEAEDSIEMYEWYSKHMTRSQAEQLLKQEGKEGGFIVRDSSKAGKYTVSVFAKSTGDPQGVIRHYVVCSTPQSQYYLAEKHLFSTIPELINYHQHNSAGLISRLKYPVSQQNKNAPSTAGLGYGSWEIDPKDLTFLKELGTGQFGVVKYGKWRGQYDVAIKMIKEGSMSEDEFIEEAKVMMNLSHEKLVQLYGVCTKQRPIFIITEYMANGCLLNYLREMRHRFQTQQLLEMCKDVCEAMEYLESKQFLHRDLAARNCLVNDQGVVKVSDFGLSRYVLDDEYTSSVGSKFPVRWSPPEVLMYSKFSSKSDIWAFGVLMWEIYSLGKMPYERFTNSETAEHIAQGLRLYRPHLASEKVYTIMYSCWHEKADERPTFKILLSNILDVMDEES

IC50	SMILES
2500 nM	CNC(=O)C(Cc1c[nH]c2ncccc12)NC(=O)c1n[nH]c2cccc(CNc3ccc(O)cc3Cl)c12 (stereo not drawn) [BTK inhibitor, 1]
0.55 nM	CNC(=O)[C@H]1Cc2c([nH]c3ccccc23)CN1C(=O)c1occc1CNc1ccc2nccnc2c1 [BTK inhibitor, 3]
210 nM	CNC(=O)Cc1cccc(NC(=O)c2n[nH]cc2CNc2ccccc2[C@H](O)c2ccccc2)c1 [BTK inhibitor, 2]
